Assay results published in patent US20230303599A1, “PRODRUGS OF PHOSPHONAMIDE NUCLEOTIDE ANALOGUES AND THEIR PHARMACEUTICAL USE” (priority 2020, published 2023).
In brackets after ≈: the same amount, converted by molar mass.

Columns and labels:
[1] = Kinetic solubility analysis; format: physicochemical; details: 1× PBS, 24.2 °C, aqueous buffer, kinetic from dmso stock; pH 7.4 PBS, 1% DMSO, 24-hour incubation at ambient temperature
Procedure: Example 108: Kinetic Solubility Analysis
Buffer Preparation: 0.1 N HCl: Hydrochloric acid, 0.1 N standardized solution (MP Biomedicals part number 199569). 1×PBS, pH 7.4: Phosphate Buffered Saline (PBS) solution 10× (Fisher Bioreagent part number BP399-500) 50 mL was added to approximately 450 mL HPLC grade H2O. The volume of the solution was then adjusted to 500 mL for a total dilution factor of 1:10 and a final PBS concentration of 1×.
The final DMSO concentration was 1.0% (v/v) and maximum theoretical compound concentration is 100 μM (for compound stock concentration of 10 mM). The filter plate was sealed. Following 24-hour incubation at ambient temperature (24.2-27.5° C.), the samples were vacuum filtered and the filtrates were collected in a 96 well polypropylene plate for analysis. The collection plate was sealed for analysis. Filtrates were injected into the Antek 8060 chemiluminescent nitrogen detector for quantification. The results are reported in μM.
The filtrates were quantified with respect to this calibration curve. Each calculated solubility value was corrected for background nitrogen present in the DMSO and in the medium used to prepare the sample. All reported values for compounds containing adjacent nitrogen atoms in a ring structure were increased by approximately 25%.

[2] = Cytotoxicity assay in MT-4 cells; format: cell-based; details: human, uninfected MT-4 cells, average of at least two independent experiments, read-out: MT4 CC50
Procedure: Compounds were tested in a high-throughput 384-well assay format for their ability to inhibit the replication of HIV-1 (IIIB) in MT-4 cells. Compounds were serially diluted (1:3) in DMSO on 384-well polypropylene plates and further diluted 200-fold into complete RPMI media (10% FBS, 1% P/S) using the Biotek Micro Flow and Labcyte ECHO acoustic dispenser. Each plate contained up to 8 test compounds, with negative (no drug) and positive (5 μM AZT) controls. MT-4 cells were pre-treated with 10 μL of either RPMI (mock-infected) or a fresh 1:250 dilution of HIV-1 IIIB concentrated virus stock. Infected and uninfected MT-4 cells were further diluted in complete RPMI media and added to each plate using a Micro Flow dispenser. After 5 days incubation in a humidified and temperature-controlled incubator (37° C.), Cell Titer Glo (Promega) was added to the assay plates and chemiluminescence read using an Envision plate-reader. EC50 values were defined as the compound concentration that causes a 50% decrease in luminescence signal and were calculated using a sigmoidal dose-response model to generate curve fits and are shown in Table 1.
Example 105: Cytotoxicity Assay in MT-4 Cells
Assays were performed as described in Example 104 except uninfected MT-4 cells were added to each well containing test compound. In addition, 10 μM puromycin was added to the last column of each assay plate to assess a base level of cytotoxicity.

| Compound | solubility kinetic at 24 h [1] | CC50 at 5 days [2] |
| --- | --- | --- |
| C[C@H](Cn1cnc2c(N)ncnc21)OCP(=O)(NC(C)(C)C(=O)O[C@H]1CC[C@H](c2ccccc2)CC1)NC(C)(C)C(=O)O[C@H]1CC[C@H](c2ccccc2)CC1 [Example 93, Bis(trans-4-phenylcyclohexyl) 2,2′-((((((R)-1-(6-amino-9H-purin-9-yl)propan-2-yl)oxy)methyl)phosphoryl)bis(azanediyl))bis(2-methylpropanoate)] | 1 µg/mL (≈ 1.29 µM) | 5.47 µM |
| CCCCCCOC(=O)C(C)(C)NP(=O)(CO[C@H](C)Cn1cnc2c(NC(=O)OCC(C)(C)C(=O)OCc3oc(=O)oc3C)ncnc21)NC(C)(C)C(=O)OCCCCCC [Example 98, Dihexyl 2,2′-(((((1-(6-(((2,2-dimethyl-3-((5-methyl-2-oxo-1,3-dioxol-4-yl)methoxy)-3-oxopropoxy)carbonyl)amino)-9H-purin-9-yl)propan-2-yl)oxy)methyl)phosphoryl)bis(azanediyl))(R)-bis(2-methylpropanoate)] | 7 µg/mL (≈ 7.94 µM) | 24.5 µM |
| CCCOC(=O)C(C)(C)NP(=O)(CO[C@H](C)Cn1cnc2c(N)ncnc21)NC(C)(C)C(=O)OCCC [Example 36, Dipropyl 2,2′-(((((1-(6-amino-9H-purin-9-yl)propan-2-yl)oxy)methyl)phosphoryl)bis(azanediyl))(R)-bis(2-methylpropanoate)] | 60 µg/mL (≈ 111 µM) | 8.96 µM |
| CCCCCCOC(=O)C(C)(C)NP(=O)(CO[C@H](C)Cn1cnc2c(N)ncnc21)N[C@]1(C(=O)OCCCCCC)C[C@H]1CC (stereo partly drawn) [Example 16, Hexyl (1R,2R)-1-((((((R)-1-(6-amino-9H-purin-9-yl)propan-2-yl)oxy)methyl)((1-(hexyloxy)-2-methyl-1-oxopropan-2-yl)amino)phosphoryl)amino)-2-ethylcyclopropane-1-carboxylate] | 12 µg/mL (≈ 18.4 µM) | 6.41 µM |
| C[C@H](Cn1cnc2c(N)ncnc21)OCP(=O)(N[C@@](C)(Cc1ccccc1)C(=O)OCC1CCCCC1)N[C@@](C)(Cc1ccccc1)C(=O)OCC1CCCCC1 [Example 15, Bis(cyclohexylmethyl) 2,2′-((((((R)-1-(6-amino-9H-purin-9-yl)propan-2-yl)oxy)methyl)phosphoryl)bis(azanediyl))(2S,2'S)-bis(2-methyl-3-phenylpropanoate)] | 2 µg/mL (≈ 2.49 µM) | 4.36 µM |
| CCCCCCOC(=O)C(C)(C)NP(=O)(CO[C@H](C)Cn1cnc2c(NC(=O)CCCC(=O)OCc3oc(=O)oc3C)ncnc21)NC(C)(C)C(=O)OCCCCCC [Example 99, (5-Methyl-2-oxo-1,3-dioxol-4-yl)methyl 5-[[9-[(2R)-2-[bis[(2-hexoxy-1,1-dimethyl-2-oxo-ethyl)amino]phosphorylmethoxy]propyl]purin-6-yl]amino]-5-oxo-pentanoate] | 25 µg/mL (≈ 29.3 µM) | 17.2 µM |
| C[C@H](Cn1cnc2c(N)ncnc21)OCP(=O)(NC(C)(C)C(=O)OC1CCCC1)NC(C)(C)C(=O)OC1CCCC1 [Example 34, Dicyclopentyl 2,2′-(((((1-(6-amino-9H-purin-9-yl)propan-2-yl)oxy)methyl)phosphoryl)bis(azanediyl))(R)-bis(2-methylpropanoate)] | 59 µg/mL (≈ 99.4 µM) | 3.67 µM |
| CCCCCCOC(=O)C(NP(=O)(CO[C@H](C)Cn1cnc2c(N)ncnc21)NC(C(=O)OCCCCCC)(C1CC1)C1CC1)(C1CC1)C1CC1 [Example 64, Dihexyl 2,2′-(((((1-(6-amino-9H-purin-9-yl)propan-2-yl)oxy)methyl)phosphoryl)bis(azanediyl))(R)-bis(2,2-dicyclopropylacetate)] | < 1 µg/mL | 7.34 µM |
| CCCCCCOC(=O)C(C)(C)NP(=O)(CO[C@H](C)Cn1cnc2c(NC(=O)OCC(=O)OCc3oc(=O)oc3C)ncnc21)NC(C)(C)C(=O)OCCCCCC [Example 95, Dihexyl 2,2′-(((((1-(6-(((2-((5-methyl-2-oxo-1,3-dioxol-4-yl)methoxy)-2-oxoethoxy)carbonyl)amino)-9H-purin-9-yl)propan-2-yl)oxy)methyl)phosphoryl)bis(azanediyl))(R)-bis(2-methylpropanoate)] | 60 µg/mL (≈ 71.4 µM) | 14.8 µM |
| CCCCCCOC(=O)C(C)(C)NP(=O)(CO[C@H](C)Cn1cnc2c(NC(=O)[C@H]3CCC(=O)O3)ncnc21)NC(C)(C)C(=O)OCCCCCC [Example 96, Dihexyl 2,2′-((((((R)-1-(6-((R)-5-oxotetrahydrofuran-2-carboxamido)-9H-purin-9-yl)propan-2-yl)oxy)methyl)phosphoryl)bis(azanediyl))bis(2-methylpropanoate)] | 92 µg/mL (≈ 125 µM) | 11 µM |
| CCCCCCOC(=O)[C@@]1(NP(=O)(CO[C@H](C)Cn2cnc3c(N)ncnc32)N[C@]2(C(=O)OCCCCCC)C[C@H]2CC)C[C@H]1CC [Example 17, Dihexyl 1,1′-((((((R)-1-(6-amino-9H-purin-9-yl)propan-2-yl)oxy)methyl)phosphoryl)bis(azanediyl))(1R,1′R,2R,2′R)-bis(2-ethylcyclopropane-1-carboxylate)] | – | 8.85 µM |
| CCCCCCOC(=O)C1(NP(=O)(CO[C@H](C)Cn2cnc3c(N)ncnc32)NC2(C(=O)OCCCCCC)CCC2)CCC1 [Example 19, Dihexyl 1,1′-(((((1-(6-amino-9H-purin-9-yl)propan-2-yl)oxy)methyl)phosphoryl)bis(azanediyl))(R)-bis(cyclobutane-1-carboxylate)] | 18 µg/mL (≈ 27.7 µM) | 17.3 µM |
| CCCCCCOC(=O)C(C)(C)NP(=O)(CO[C@H](C)Cn1cnc2c(NC(C)=O)ncnc21)NC(C)(C)C(=O)OCCCCCC [Example 28, Dihexyl 2,2′-(((((1-(6-acetamido-9H-purin-9-yl)propan-2-yl)oxy)methyl)phosphoryl)bis(azanediyl))(R)-bis(2-methylpropanoate)] | 55 µg/mL (≈ 82.4 µM) | – |
| C[C@H](Cn1cnc2c(N)ncnc21)OCP(=O)(NC(C)(C)C(=O)OC1CCC2(CCC2)CC1)NC(C)(C)C(=O)OC1CCC2(CCC2)CC1 (stereo partly drawn) [Example 63, Di(spiro[3.5]nonan-7-yl) 2,2′-(((((1-(6-amino-9H-purin-9-yl)propan-2-yl)oxy)methyl)phosphoryl)bis(azanediyl))(R)-bis(2-methylpropanoate)] | – | 2.22 µM |
| CCCCCCOC(=O)C(C)(C)NP(=O)(CO[C@H](C)Cn1cnc2c(NC(=O)OCCCCC)ncnc21)NC(C)(C)C(=O)OCCCCCC [Example 32, Dihexyl 2,2′-(((((1-(6-(((pentyloxy)carbonyl)amino)-9H-purin-9-yl)propan-2-yl)oxy)methyl)phosphoryl)bis(azanediyl))(R)-bis(2-methylpropanoate)] | < 1 µg/mL | – |
| CCCCCCOC(=O)C(C)(C)NP(=O)(CO[C@H](C)Cn1cnc2c(N)ncnc21)NC(C)(C)C(=O)OCC12CCC(CC1)C2 (stereo partly drawn) [Example 80, Bicyclo[2.2.1]heptan-1-ylmethyl 2-((((((R)-1-(6-amino-9H-purin-9-yl)propan-2-yl)oxy)methyl)((1-(hexyloxy)-2-methyl-1-oxopropan-2-yl)amino)phosphoryl)amino)-2-methylpropanoate] | 56 µg/mL (≈ 86.2 µM) | – |
| CCCC(CCC)COC(=O)C(C)(C)NP(=O)(CO[C@H](C)Cn1cnc2c(N)ncnc21)NC(C)(C)C(=O)OCC(CCC)CCC [Example 69, Bis(2-propylpentyl) 2,2′-(((((1-(6-amino-9H-purin-9-yl)propan-2-yl)oxy)methyl)phosphoryl)bis(azanediyl))(R)-bis(2-methylpropanoate)] | 1 µg/mL (≈ 1.47 µM) | – |
| C[C@H](Cn1cnc2c(N)ncnc21)OCP(=O)(NC(C)(C)C(=O)OC1CCCCC1)NC(C)(C)C(=O)OC1CCCCC1 [Example 40, Dicyclohexyl 2,2′-(((((1-(6-amino-9H-purin-9-yl)propan-2-yl)oxy)methyl)phosphoryl)bis(azanediyl))(R)-bis(2-methylpropanoate)] | 57 µg/mL (≈ 91.7 µM) | – |
| CCCCCCOC(=O)C(C)(C)NP(=O)(CO[C@H](C)Cn1cnc2c(NCc3oc(=O)oc3C)ncnc21)NC(C)(C)C(=O)OCCCCCC [Example 82, Dihexyl 2,2′-(((((1-(6-(((5-methyl-2-oxo-1,3-dioxol-4-yl)methyl)amino)-9H-purin-9-yl)propan-2-yl)oxy)methyl)phosphoryl)bis(azanediyl))(R)-bis(2-methylpropanoate)] | 10 µg/mL (≈ 13.6 µM) | – |
